{
  "source": "the SangsterLogP compilation",
  "data": [
    {"values": [
      {"compound": "COCOc1ccc2nc(-c3ccc(N)c(I)c3)sc2c1", "logP": 3.03},
      {"compound": "COCOc1ccc2nc(-c3ccc(N)cc3)sc2c1", "logP": 1.86},
      {"compound": "CNc1ccc(-c2nc3ccc([N+](=O)[O-])cc3s2)cc1I", "logP": 4.08},
      {"compound": "Nc1ccc2nc(-c3ccc(O)cc3)sc2c1I", "logP": 1.6},
      {"compound": "CNc1ccc(-c2nc3ccc(Br)cc3s2)cc1", "logP": 3.64},
      {"compound": "Oc1ccc2nc(-c3ccc(O)c(I)c3)sc2c1", "logP": 1.09},
      {"compound": "Nc1ccc(-c2nc3ccc([N+](=O)[O-])cc3s2)cc1", "logP": 2.21},
      {"compound": "CNc1ccc(-c2nc3ccc(Br)cc3s2)cc1I", "logP": 4.86},
      {"compound": "COc1ccc2nc(-c3ccc(O)cc3)sc2c1", "logP": 1.8},
      {"compound": "COc1ccc2nc(-c3ccc(N)cc3)sc2c1", "logP": 1.87},
      {"compound": "COc1ccc(-c2nc3ccc(O)cc3s2)cc1", "logP": 1.75},
      {"compound": "CNc1ccc(-c2nc3ccc(OC)cc3s2)cc1I", "logP": 3.8},
      {"compound": "Nc1ccc(-c2nc3ccc(Br)cc3s2)cc1I", "logP": 4.11},
      {"compound": "COc1ccc2nc(-c3ccc(N)c(I)c3)sc2c1", "logP": 3.08},
      {"compound": "CNc1ccc(-c2nc3ccc([N+](=O)[O-])cc3s2)cc1", "logP": 2.96},
      {"compound": "COC(=O)c1ccc2nc(-c3ccc(N)cc3)sc2c1", "logP": 2.07},
      {"compound": "COc1ccc(-c2nc3ccc(O)c(I)c3s2)cc1", "logP": 2.49},
      {"compound": "CNc1ccc(-c2nc3ccc(OC)cc3s2)cc1", "logP": 2.58},
      {"compound": "Oc1ccc(-c2nc3ccc(O)c(I)c3s2)cc1", "logP": 1.01},
      {"compound": "Nc1ccc(-c2nc3ccccc3s2)cc1I", "logP": 3.17},
      {"compound": "Nc1ccc(-c2nc3ccc(O)cc3s2)cc1I", "logP": 1.65},
      {"compound": "CNc1ccc(-c2nc3ccccc3s2)cc1I", "logP": 3.9},
      {"compound": "Nc1ccc(-c2nc3ccc(Br)cc3s2)cc1", "logP": 2.87},
      {"compound": "Nc1ccc(-c2nc3ccc([N+](=O)[O-])cc3s2)cc1I", "logP": 3.33},
      {"compound": "CNc1ccc(-c2nc3ccc(O)cc3s2)cc1I", "logP": 2.35},
      {"compound": "Oc1ccc(-c2nc3ccccc3s2)cc1I", "logP": 2.22},
      {"compound": "COc1ccc(-c2nc3ccc(N)c(I)c3s2)cc1", "logP": 2.95},
      {"compound": "Oc1ccc(-c2nc3ccccc3s2)cc1", "logP": 1.86},
      {"compound": "COc1ccc2nc(-c3ccc(O)c(I)c3)sc2c1", "logP": 2.31},
      {"compound": "COC(=O)c1ccc2nc(-c3ccc(N)c(I)c3)sc2c1", "logP": 3.29},
      {"compound": "COc1ccc(-c2nc3ccc(N)cc3s2)cc1", "logP": 1.76},
      {"compound": "Nc1ccc(-c2nc3ccccc3s2)cc1", "logP": 1.98}
    ]}
  ]
}
